In ChEMBL document CHEMBL4190187, “Discovery of pyrazolopyrimidine derivatives as novel inhibitors of ataxia telangiectasia and rad3 related protein (ATR)” (Bioorg Med Chem Lett, 2017):

Assays:
[1] = target: Serine/threonine-protein kinase ICK (Homo sapiens) (UniProt Q9UPZ9); test: Inhibition of recombinant human ICK (1 to 312 residues) at 1 uM using RRRFRPASPLRGPPK as substrate after 120 mins in presence of [gamma-33P]ATP by scintillation counting method
[2] = target: SRSF protein kinase 2 (Homo sapiens) (UniProt P78362); test: Inhibition of recombinant human SRPK2 (46 to end residues) at 1 uM using RSRSRSRSRSRSRSR as substrate after 40 mins in presence of [gamma-33P]ATP by scintillation counting method
[3] = target: Tyrosine-protein kinase JAK2 (Homo sapiens) (UniProt O60674); test: Inhibition of recombinant human JAK2 (808 to end residues) at 1 uM using KTFCGTPEYLAPEVRREPRILSEEEQEMFRDFDYIADWC as substrate after 40 mins in presence of [gamma-33P]ATP by scintillation counting method
[4] = target: Serine/threonine-protein kinase mTOR (Homo sapiens) (UniProt P42345); test: Inhibition of recombinant full-length human mTOR at 1 uM after 40 mins in presence of [gamma-33P]ATP by scintillation counting method
[5] = target: Tyrosine-protein kinase Lck (Homo sapiens) (UniProt P06239); test: Inhibition of recombinant full-length human Lck at 1 uM using KVEKIGEGTYGVVYK (Cdc2 peptide) as substrate after 40 mins in presence of [gamma-33P]ATP by scintillation counting method
[6] = target: Serine/threonine-protein kinase MAK (Homo sapiens) (UniProt P20794); test: Inhibition of recombinant full-length human MAK at 1 uM using RRRFRPASPLRGPPK as substrate after 120 mins in presence of [gamma-33P]ATP by scintillation counting method
[7] = target: Protein kinase C eta type (Homo sapiens) (UniProt P24723); test: Inhibition of recombinant human PKCeta (2 to end residues) at 1 uM using ERMRPRKRQGSVRRRV as substrate after 40 mins in presence of [gamma-33P]ATP by scintillation counting method
[8] = target: Calcium/calmodulin-dependent protein kinase type 1D (Homo sapiens) (UniProt Q8IU85); test: Inhibition of recombinant full-length human CAMK1delta at 1 uM using […] after 40 mins in presence of [gamma-33P]ATP by scintillation counting method
[9] = target: SNF-related serine/threonine-protein kinase (Homo sapiens) (UniProt Q9NRH2); test: Inhibition of recombinant human SNRK (1 to 505 residues) at 1 uM using KKLRRTLSFAEPG as substrate after 40 mins in presence of [gamma-33P]ATP by scintillation counting method
Chain of SNF-related serine/threonine-protein kinase (Homo sapiens) (Q9NRH2 whole entry, the tested form may be a part): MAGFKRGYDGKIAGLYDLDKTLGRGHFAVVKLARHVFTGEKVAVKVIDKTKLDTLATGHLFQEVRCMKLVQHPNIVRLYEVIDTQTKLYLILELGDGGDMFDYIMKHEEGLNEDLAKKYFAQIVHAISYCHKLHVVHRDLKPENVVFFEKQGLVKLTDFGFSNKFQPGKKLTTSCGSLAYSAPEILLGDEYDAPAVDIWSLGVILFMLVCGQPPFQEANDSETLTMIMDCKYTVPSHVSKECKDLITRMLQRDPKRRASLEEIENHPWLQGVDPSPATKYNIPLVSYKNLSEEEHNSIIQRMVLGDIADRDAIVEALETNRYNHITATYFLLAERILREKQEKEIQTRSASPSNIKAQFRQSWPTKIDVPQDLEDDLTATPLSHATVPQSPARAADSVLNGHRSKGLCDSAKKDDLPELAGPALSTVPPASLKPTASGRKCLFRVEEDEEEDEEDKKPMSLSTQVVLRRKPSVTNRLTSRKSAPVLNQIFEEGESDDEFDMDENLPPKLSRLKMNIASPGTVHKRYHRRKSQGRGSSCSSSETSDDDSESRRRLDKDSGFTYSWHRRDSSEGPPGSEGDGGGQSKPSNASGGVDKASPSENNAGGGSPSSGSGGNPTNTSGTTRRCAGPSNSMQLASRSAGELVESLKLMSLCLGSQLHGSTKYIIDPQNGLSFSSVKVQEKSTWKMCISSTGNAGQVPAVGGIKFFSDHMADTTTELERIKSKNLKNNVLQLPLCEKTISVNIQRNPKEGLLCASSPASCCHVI

Chain of Protein kinase C eta type (Homo sapiens) (P24723 whole entry): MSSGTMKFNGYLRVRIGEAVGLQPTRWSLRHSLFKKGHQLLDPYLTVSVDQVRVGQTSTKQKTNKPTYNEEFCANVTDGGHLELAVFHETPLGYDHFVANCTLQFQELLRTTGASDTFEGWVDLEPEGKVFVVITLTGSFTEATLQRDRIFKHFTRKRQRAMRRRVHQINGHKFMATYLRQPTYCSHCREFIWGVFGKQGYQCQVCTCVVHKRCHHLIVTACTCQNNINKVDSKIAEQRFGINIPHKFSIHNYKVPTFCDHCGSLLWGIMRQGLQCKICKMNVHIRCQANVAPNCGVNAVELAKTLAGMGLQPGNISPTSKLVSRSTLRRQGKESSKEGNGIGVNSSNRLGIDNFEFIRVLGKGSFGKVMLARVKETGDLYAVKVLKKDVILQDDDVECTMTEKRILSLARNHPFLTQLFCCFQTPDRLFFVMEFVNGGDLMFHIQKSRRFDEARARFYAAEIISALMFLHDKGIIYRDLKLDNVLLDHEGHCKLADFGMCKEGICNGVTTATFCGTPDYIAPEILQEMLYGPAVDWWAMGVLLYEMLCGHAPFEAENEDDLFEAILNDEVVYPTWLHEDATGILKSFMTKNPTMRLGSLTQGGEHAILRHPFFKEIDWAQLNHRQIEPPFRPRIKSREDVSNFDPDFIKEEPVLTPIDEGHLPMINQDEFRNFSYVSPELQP
Chain of SRSF protein kinase 2 (Homo sapiens) (P78362 whole entry, looked up): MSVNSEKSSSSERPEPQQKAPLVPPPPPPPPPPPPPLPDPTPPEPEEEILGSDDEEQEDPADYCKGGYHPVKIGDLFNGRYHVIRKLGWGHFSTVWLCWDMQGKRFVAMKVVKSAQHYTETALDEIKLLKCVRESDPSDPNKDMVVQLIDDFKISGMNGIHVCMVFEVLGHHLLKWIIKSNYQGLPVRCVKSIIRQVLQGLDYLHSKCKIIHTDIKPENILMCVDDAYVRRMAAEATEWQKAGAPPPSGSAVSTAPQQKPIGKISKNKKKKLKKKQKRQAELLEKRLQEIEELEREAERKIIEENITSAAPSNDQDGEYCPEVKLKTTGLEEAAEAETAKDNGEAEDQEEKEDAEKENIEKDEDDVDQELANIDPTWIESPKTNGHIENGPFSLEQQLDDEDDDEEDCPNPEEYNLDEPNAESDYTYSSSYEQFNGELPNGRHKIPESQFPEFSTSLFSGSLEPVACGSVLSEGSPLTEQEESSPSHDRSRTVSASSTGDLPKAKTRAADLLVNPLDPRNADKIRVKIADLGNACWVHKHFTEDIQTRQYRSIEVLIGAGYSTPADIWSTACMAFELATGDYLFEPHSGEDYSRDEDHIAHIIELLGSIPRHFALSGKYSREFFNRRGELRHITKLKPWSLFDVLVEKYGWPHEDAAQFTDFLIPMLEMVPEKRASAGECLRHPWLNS
Chain of Tyrosine-protein kinase Lck (Homo sapiens) (P06239 2-509 limits assumed): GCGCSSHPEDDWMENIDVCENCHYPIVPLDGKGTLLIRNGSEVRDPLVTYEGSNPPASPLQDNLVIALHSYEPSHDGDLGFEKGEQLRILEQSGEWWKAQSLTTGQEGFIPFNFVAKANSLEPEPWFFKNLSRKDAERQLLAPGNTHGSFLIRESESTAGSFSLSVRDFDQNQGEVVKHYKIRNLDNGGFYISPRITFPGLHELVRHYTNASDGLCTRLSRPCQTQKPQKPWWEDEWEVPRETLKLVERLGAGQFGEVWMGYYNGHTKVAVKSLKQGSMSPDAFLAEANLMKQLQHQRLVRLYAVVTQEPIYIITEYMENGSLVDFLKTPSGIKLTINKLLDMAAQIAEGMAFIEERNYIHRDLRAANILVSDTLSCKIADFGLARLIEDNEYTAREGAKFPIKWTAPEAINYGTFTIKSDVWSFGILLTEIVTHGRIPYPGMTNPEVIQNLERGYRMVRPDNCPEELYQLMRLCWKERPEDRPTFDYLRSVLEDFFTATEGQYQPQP
Chain of Tyrosine-protein kinase JAK2 (Homo sapiens) (O60674 whole entry): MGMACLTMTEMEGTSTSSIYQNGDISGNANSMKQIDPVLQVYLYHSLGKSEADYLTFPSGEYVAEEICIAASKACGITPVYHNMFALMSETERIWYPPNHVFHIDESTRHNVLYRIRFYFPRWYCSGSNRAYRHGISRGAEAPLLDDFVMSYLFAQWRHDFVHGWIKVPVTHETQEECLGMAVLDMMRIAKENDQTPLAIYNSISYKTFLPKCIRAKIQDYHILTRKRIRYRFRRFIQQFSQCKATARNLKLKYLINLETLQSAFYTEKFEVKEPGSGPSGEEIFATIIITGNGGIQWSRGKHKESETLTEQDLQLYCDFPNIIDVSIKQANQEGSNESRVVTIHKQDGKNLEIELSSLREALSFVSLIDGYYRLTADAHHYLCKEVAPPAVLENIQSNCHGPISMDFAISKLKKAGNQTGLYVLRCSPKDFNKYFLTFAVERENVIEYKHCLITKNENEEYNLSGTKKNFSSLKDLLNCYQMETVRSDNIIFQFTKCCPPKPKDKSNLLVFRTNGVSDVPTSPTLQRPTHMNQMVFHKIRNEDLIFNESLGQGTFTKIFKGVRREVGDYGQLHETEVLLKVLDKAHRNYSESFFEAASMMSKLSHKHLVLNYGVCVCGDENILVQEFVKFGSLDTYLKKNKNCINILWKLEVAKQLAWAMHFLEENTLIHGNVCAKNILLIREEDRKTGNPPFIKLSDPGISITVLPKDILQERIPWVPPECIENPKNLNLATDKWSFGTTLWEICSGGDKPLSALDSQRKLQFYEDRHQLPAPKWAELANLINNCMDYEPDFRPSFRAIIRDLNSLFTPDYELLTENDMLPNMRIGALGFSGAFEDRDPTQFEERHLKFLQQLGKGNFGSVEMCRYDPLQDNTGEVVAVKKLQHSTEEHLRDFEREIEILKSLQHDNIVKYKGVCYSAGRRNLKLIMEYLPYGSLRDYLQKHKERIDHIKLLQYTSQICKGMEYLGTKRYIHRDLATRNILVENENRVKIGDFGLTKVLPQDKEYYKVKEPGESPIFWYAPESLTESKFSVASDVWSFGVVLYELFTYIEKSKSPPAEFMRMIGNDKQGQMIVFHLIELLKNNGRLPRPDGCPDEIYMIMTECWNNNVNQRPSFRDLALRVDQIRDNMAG
Chain of Calcium/calmodulin-dependent protein kinase type 1D (Homo sapiens) (Q8IU85 whole entry, looked up, the tested form may be a part): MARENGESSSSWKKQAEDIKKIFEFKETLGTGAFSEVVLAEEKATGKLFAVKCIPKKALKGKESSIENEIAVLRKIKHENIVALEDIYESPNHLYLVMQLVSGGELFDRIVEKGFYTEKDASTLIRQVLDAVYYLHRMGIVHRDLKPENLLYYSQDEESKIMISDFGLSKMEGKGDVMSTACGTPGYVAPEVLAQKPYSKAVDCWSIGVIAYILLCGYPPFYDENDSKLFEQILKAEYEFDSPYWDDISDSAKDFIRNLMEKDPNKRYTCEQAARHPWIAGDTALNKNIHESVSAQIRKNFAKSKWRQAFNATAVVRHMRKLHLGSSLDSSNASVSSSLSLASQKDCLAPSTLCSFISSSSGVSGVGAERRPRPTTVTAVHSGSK
Chain of Serine/threonine-protein kinase MAK (Homo sapiens) (P20794 whole entry): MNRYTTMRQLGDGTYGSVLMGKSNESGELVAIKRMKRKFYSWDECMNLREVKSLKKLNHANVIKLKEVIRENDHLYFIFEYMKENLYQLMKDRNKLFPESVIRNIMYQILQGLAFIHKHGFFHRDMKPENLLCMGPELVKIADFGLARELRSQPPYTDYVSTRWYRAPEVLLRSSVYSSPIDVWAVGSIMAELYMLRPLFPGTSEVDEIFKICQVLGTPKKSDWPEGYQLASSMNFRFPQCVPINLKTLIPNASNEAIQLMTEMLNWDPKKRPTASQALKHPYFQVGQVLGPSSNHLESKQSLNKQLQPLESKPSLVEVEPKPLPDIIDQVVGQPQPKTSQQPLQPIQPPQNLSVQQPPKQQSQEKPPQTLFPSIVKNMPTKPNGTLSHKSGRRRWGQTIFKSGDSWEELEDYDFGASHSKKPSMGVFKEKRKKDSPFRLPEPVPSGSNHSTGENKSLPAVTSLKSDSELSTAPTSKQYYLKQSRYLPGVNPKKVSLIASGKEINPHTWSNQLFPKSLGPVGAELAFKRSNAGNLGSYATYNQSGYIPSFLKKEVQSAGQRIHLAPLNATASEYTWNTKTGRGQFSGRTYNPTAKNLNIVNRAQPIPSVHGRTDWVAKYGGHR

With `CS(=O)(=O)c1ccc(-n2nc(-c3cnc4[nH]ccc4c3)c3c(N)ncnc32)cc1` the inhibition [1] was -8%, the inhibition [2] was 0% and the inhibition [3] was 5%. For the same compound, the inhibition [4] was 65%, the inhibition [5] was 55% and the inhibition [6] was 2%. It also gave an inhibition [7] of 6%, an inhibition [8] of -8% and an inhibition [9] of -6%.
